Test [1] concerns R848-induced TNFα production by human peripheral blood mononuclear cells (PBMCs). As to the kind of experiment: R848 Induced TNFα in Human PBMC Assay. The conditions noted are these: Homo sapiens, PBMC, 3 h, read-out: R848-induced TNFa PBMC IC50 (nM). The class given is cell-based.
Test [2] has as its target human IRAK4 FL (Full Length) (Homo sapiens (Human), UniProt Q9NWZ3). As to the kind of experiment: IRAK4 Enzymatic DELFIA Assay, Protocol A. The class given is biochemical.
Where [3] appears, read: human IRAK4 FL, 0.6 mM ATP (KM), read-out: IRAK4 DELFIA Protocol A IC50.

Our source for the IC50 values is patent US10329302B2, “Bicyclic-fused heteroaryl or aryl compounds” (Pfizer Inc., priority 2014, dated 2019).

Where two headings read alike, the source gives them in different places.

For orientation: IC50 means the concentration that gives 50% inhibition.

human IRAK4 FL (Full Length), sequence (Q9NWZ3 whole entry): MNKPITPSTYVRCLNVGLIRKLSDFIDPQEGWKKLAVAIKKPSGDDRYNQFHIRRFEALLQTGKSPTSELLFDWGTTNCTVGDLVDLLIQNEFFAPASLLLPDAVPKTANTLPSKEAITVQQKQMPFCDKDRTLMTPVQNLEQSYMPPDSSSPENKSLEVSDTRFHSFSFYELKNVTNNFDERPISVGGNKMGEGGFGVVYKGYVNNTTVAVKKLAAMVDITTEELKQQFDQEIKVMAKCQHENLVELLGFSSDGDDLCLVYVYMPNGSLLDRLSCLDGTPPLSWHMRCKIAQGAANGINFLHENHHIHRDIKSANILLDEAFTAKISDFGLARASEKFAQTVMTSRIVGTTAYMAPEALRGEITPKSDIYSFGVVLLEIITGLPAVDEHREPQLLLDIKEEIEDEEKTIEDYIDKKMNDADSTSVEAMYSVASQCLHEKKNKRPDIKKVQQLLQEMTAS

For `COc1cc2c(OC[C@H]3NC(=O)[C@@H](F)[C@H]3CCF)nccc2cc1C(N)=O` [Example 370, 1-{[(2S,3S,4S)-4-fluoro-3-(2-fluoroethyl)-5-oxopyrrolidin-2-yl]methoxy}-7-methoxyisoquinoline-6-carboxamide], the concentration for half-maximal inhibition (IC50) is 3.7 nM in test [1] and 0.1 nM in test [2] (setting [3]).
The corresponding values for `CCOc1cc2c(OC[C@H]3NC(=O)[C@@H](F)[C@H]3C)ccnc2cc1C(N)=O` [Example 279, 6-ethoxy-4-{[(2S,3S,4S)-4-fluoro-3-methyl-5-oxopyrrolidin-2-yl]methoxy}quinoline-7-carboxamide] are 212 nM and 1.2 nM.
The corresponding values for `CC[C@@H]1[C@H](F)C(=O)N[C@@H]1COc1ncnc2cc(C(N)=O)c(OC)cc12` [Example 341, 4-{[(2S,3S,4S)-3-ethyl-4-fluoro-5-oxopyrrolidin-2-yl]methoxy}-6-methoxyquinazoline-7-carboxamide] are 16 nM and 0.3 nM.
In the same order, the values of `CC(C)Oc1cc2c(OC[C@@H]3CC(C)(C)C(=O)N3)nccc2cc1C(N)=O` [Example 110, 1-{[(2S)-4,4-dimethyl-5-oxopyrrolidin-2-yl]methoxy}-7-(propan-2-yloxy)isoquinoline-6-carboxamide] are 1170 nM and 418 nM.
`COc1cc2c(OC[C@H]3NC(=O)[C@@H]4[C@@H](F)[C@@H]43)ccnc2cc1C(N)=O` [Example 324, 4-{[(1S,2S,5R)-6-fluoro-4-oxo-3-azabicyclo[3.1.0]hex-2-yl]methoxy}-6-methoxyquinoline-7-carboxamide]: the IC50 in test [1] stood at 277 nM; in test [2] (setting [3]), 0.6 nM.
With `COc1cc2c(OC[C@H]3NC(=O)[C@](F)(CO)[C@H]3C)nccc2cc1C(N)=O` [Example 208, 1-{[(2S,3S,4R)-4-fluoro-4-(hydroxymethyl)-3-methyl-5-oxopyrrolidin-2-yl]methoxy}-7-methoxyisoquinoline-6-carboxamide], the IC50 in test [1] was found to be 87 nM; in test [2] (setting [3]) it was 1.1 nM.
In the same order, the values of `COc1cc2c(OC[C@@H]3C[C@@](F)(CCF)C(=O)N3)nccc2cc1C(N)=O` [Example 276, 1-{[(2S,4R)-4-fluoro-4-(2-fluoroethyl)-5-oxopyrrolidin-2-yl]methoxy}-7-methoxyisoquinoline-6-carboxamide] are 107 nM and 4.1 nM.
The corresponding values for `COc1cc2c(OC[C@H]3NC(=O)[C@@H](F)[C@H]3C3CC3)nccc2cc1C(N)=O` [Example 368, 1-{[(2S,3S,4S)-3-cyclopropyl-4-fluoro-5-oxopyrrolidin-2-yl]methoxy}-7-methoxyisoquinoline-6-carboxamide] are 10 nM and 0.3 nM.
The corresponding values for `CC(C)Oc1cc2c(OC[C@@H]3CC(C4(O)CCOCC4)C(=O)N3)nccc2cc1C(N)=O` (stereo partly drawn) [Example 181, 1-{[(2S)-4-(4-hydroxytetrahydro-2H-pyran-4-yl)-5-oxopyrrolidin-2-yl]methoxy}-7-(propan-2-yloxy)isoquinoline-6-carboxamide] are 503 nM and 5.7 nM.
Regarding `CC(C)Oc1cc2c(OC[C@@H]3C[C@H](CC(F)(F)F)C(=O)N3)nccc2cc1C(N)=O` [Example 152, 1-{[(2S,4R)-5-oxo-4-(2,2,2-trifluoroethyl)pyrrolidin-2-yl]methoxy}-7-(propan-2-yloxy)isoquinoline-6-carboxamide], the results for the IC50 in test [1] and in test [2] (setting [3]) were 139 nM and 6.7 nM, respectively.
In the same order, the values of `COc1cc2c(OC[C@H]3NC(=O)O[C@@H]3C)nccc2cc1C(N)=O` [Example 227, 7-methoxy-1-{[(4R,5R)-5-methyl-2-oxo-1,3-oxazolidin-4-yl]methoxy}isoquinoline-6-carboxamide] are 749 nM and 19 nM.
The corresponding values for `CC(C)Oc1cc2c(OC[C@@H]3C[C@@H](CO)C(=O)N3)nccc2cc1C(N)=O` [Example 166, 1-{[(2S,4S)-4-(hydroxymethyl)-5-oxopyrrolidin-2-yl]methoxy}-7-(propan-2-yloxy)isoquinoline-6-carboxamide] are 389 nM and 4.3 nM.
For `COc1cc2c(OC[C@@H]3C[C@](C)(F)C(=O)N3)nccc2cc1C(N)=O` [Example 177, 1-{[(2S,4S)-4-fluoro-4-methyl-5-oxopyrrolidin-2-yl]methoxy}-7-methoxyisoquinoline-6-carboxamide], the IC50 in test [1] was 43 nM; in test [2] (setting [3]), 3.8 nM.
In the case of `COc1cc2c(OC[C@H]3NC(=O)[C@@H](F)[C@H]3CF)nccc2cc1C(N)=O` [Example 367, 1-{[(2S,3R,4S)-4-fluoro-3-(fluoromethyl)-5-oxopyrrolidin-2-yl]methoxy}-7-methoxyisoquinoline-6-carboxamide], the IC50 in test [1] was 14 nM; in test [2] (setting [3]), 0.4 nM.
The corresponding values for `CC[C@H]1[C@@H](COc2nccc3cc(C(N)=O)c(OC(C)C)cc23)NC(=O)C1(F)F` [Example 201, 1-{[(2S,3S)-3-ethyl-4,4-difluoro-5-oxopyrrolidin-2-yl]methoxy}-7-(propan-2-yloxy)isoquinoline-6-carboxamide] are 1 nM and 0.4 nM.
In the same order, the values of `CC[C@]1(F)C[C@@H](COc2nccc3cc(C(N)=O)c(OC(C)C)cc23)NC1=O` [Example 131, 1-{[(2S,4S)-4-ethyl-4-fluoro-5-oxopyrrolidin-2-yl]methoxy}-7-(propan-2-yloxy)isoquinoline-6-carboxamide] are 29 nM and 0.6 nM.
The corresponding values for `COC[C@H]1[C@H]2C(=O)N[C@H](COc3nccc4cc(C(N)=O)c(OC)cc34)[C@@H]12` [Example 314, 7-methoxy-1-{[(1S,2S,5S)-6-(methoxymethyl)-4-oxo-3-azabicyclo[3.1.0]hex-2-yl]methoxy}isoquinoline-6-carboxamide] are 8360 nM and 1980 nM.
As for `COc1cc2c(OC[C@H]3NC(=O)[C@H]4[C@@H]3[C@@]4(C)F)nccc2cc1C(N)=O` [Example 336, 1-{[(1S,2S,5R)-6-fluoro-6-methyl-4-oxo-3-azabicyclo[3.1.0]hex-2-yl]methoxy}-7-methoxyisoquinoline-6-carboxamide], the IC50 was determined as 674 nM in test [1] and 0.3 nM in test [2] (setting [3]).
The corresponding values for `CCC[C@@H]1CC(=O)N[C@@H]1COc1nccc2cc(C(N)=O)c(OC)cc12` [Example 312, 7-methoxy-1-{[(2S,3R)-5-oxo-3-propylpyrrolidin-2-yl]methoxy}isoquinoline-6-carboxamide] are 26 nM and 1.3 nM.
The corresponding values for `CC[C@@H]1[C@H](F)C(=O)N[C@@H]1COc1ncc(F)c2cc(C(N)=O)c(OC)cc12` [Example 360, 1-{[(2S,3S,4S)-3-ethyl-4-fluoro-5-oxopyrrolidin-2-yl]methoxy}-4-fluoro-7-methoxyisoquinoline-6-carboxamide] are 3.9 nM and 0.1 nM.
In the same order, the values of `CC(C)Oc1cc2c(OC[C@@H]3CCC(=O)N3C)nccc2cc1C(N)=O` [Example 180, 1-{[(2S)-1-methyl-5-oxopyrrolidin-2-yl]methoxy}-7-(propan-2-yloxy)isoquinoline-6-carboxamide] are 2560 nM and 1790 nM.
As to `COc1cc2c(OC[C@@H]3C[C@@](F)(CF)C(=O)N3)nccc2cc1C(N)=O` [Example 215, 1-{[(2S,4S)-4-fluoro-4-(fluoromethyl)-5-oxopyrrolidin-2-yl]methoxy}-7-methoxyisoquinoline-6-carboxamide], the IC50 in test [1] amounted to 35 nM; in test [2], 1.7 nM.
As for `CC(C)Oc1cc2c(OC[C@@H]3C[C@H](F)C(=O)N3)nccc2cc1C(N)=O` [Example 145, 1-{[(2S,4S)-4-fluoro-5-oxopyrrolidin-2-yl]methoxy}-7-(propan-2-yloxy)isoquinoline-6-carboxamide], the IC50 in test [1] came out at 41 nM; in test [2] (setting [3]), 0.4 nM.
In the same order, the values of `COc1cc2c(OC[C@@H]3C[C@@](F)(CCF)C(=O)N3)ccnc2cc1C(N)=O` [Example 274, 4-{[(2S,4R)-4-fluoro-4-(2-fluoroethyl)-5-oxopyrrolidin-2-yl]methoxy}-6-methoxyquinoline-7-carboxamide] are 748 nM and 2.2 nM.
In the same order, the values of `COc1cc2c(OC[C@@H]3CCC(=O)N3)ncnc2cc1C(N)=O` [Example 209, 6-methoxy-4-{[(2S)-5-oxopyrrolidin-2-yl]methoxy}quinazoline-7-carboxamide] are 9310 nM and 251 nM.
In the case of `CC[C@@H]1CC(=O)N[C@@H]1COc1ncc(F)c2cc(C(N)=O)c(OC)cc12` [Example 362, 1-{[(2S,3R)-3-ethyl-5-oxopyrrolidin-2-yl]methoxy}-4-fluoro-7-methoxyisoquinoline-6-carboxamide], the IC50 was determined as 28 nM in test [1] and 1.1 nM in test [2] (setting [3]).
For `COCC1C[C@@H](COc2nccc3cc(C(N)=O)c(OC(C)C)cc23)NC1=O` (stereo partly drawn) [Example 127, 1-{[(2S)-4-(methoxymethyl)-5-oxopyrrolidin-2-yl]methoxy}-7-(propan-2-yloxy)isoquinoline-6-carboxamide], the half-inhibitory concentration (IC50) came to 682 nM in test [1] and 65 nM in test [2] (setting [3]).
Turning to `COc1cc2c(OC[C@H]3NC(=O)[C@@H]4[C@@H](F)[C@@H]43)nccc2cc1C(N)=O` [Example 315, 1-{[(1S,2S,5R)-6-fluoro-4-oxo-3-azabicyclo[3.1.0]hex-2-yl]methoxy}-7-methoxyisoquinoline-6-carboxamide], the IC50 was 45 nM in test [1] and 1.5 nM in test [2] (setting [3]).
As for `CC(C)Oc1cc2c(OC[C@H]3NC(=O)C[C@H]3C)nccc2cc1C(N)=O` [Example 219, 1-{[(2S,3R)-3-methyl-5-oxopyrrolidin-2-yl]methoxy}-7-(propan-2-yloxy)isoquinoline-6-carboxamide], the IC50 in test [1] was 65 nM; in test [2] (setting [3]) it was 1.7 nM.
